Test results from patent US9408393B2, “Bismuth-thiols as antiseptics for agricultural, industrial and other uses” (Microbion Corporation, priority 2010, dated 2016).
Where two headings read alike, the source gives them in different places.

Assays:
MRSA clinical isolates [1] = assay: Broth dilution MIC in BHIG/X medium with subMIC BisEDT; format: cell-based, Staphylococcus aureus; settings: for MIC: Staphylococcus aureus, MRSA, 12 MRSA clinical isolates, BHIG/X, mean ± SD, read-out: MIC
Experimental: (§1) Broth dilution antimicrobial susceptibility studies were performed against 12 MRSA strains using several antibiotics combined with subMIC levels of BisEDT (Table 18). Both the biofilm-prevention concentration (BPC) and the minimum inhibitory concentration (MIC) were determined in a special biofilm culture medium (BHIG/X). […] These strains were already sensitive to vancomycin, but were made considerably moreso in the presence of subMIC BisEDT.
In this particular study, the data indicated synergy between BisEDT and cefepime (FIC<0.5), with many of the isolates at the breakpoint for sensitivity.

[2] = tested on: MRSA clinical isolates biofilm; assay: Biofilm-prevention concentration (BPC) in BHIG/X medium with subMIC BisEDT; format: cell-based, Staphylococcus aureus; settings: 12 MRSA clinical isolates, mean ± SD
Experimental: as §1

[3] = tested on: lawn of MRSA (Methicillin-resistant S. aureus); assay: Antibiotic-soaked discs on bacterial lawn with and without BisEDT; format: cell-based, Staphylococcus aureus; settings: antibiotic discs combined with BisEDT 0.05 μg/ml
Experimental: FIGS. 4A and 4B show the subinhibitory BisEDT reversing antibiotic-resistance to several antibiotics. Effects of antibiotics with and without BisEDT (0.05 μg/ml) on a lawn of MRSA (Methicillin-resistant S. aureus) is shown. […] [GM=gentamicin, CZ=cefazolin, FEP=cefepime, IPM=imipenim, SAM=ampicillin/sulbactam, LVX=levofloxacin.

Escherichia coli = assay: Single-point BisEDT-antibiotic combination FICI; format: cell-based
Klebsiella pneumoniae = assay: Single-point BisEDT-antibiotic combination FICI; format: cell-based; settings: KP 1231
Pseudomonas aeruginosa = assay: Single-point BisEDT-antibiotic combination FICI; format: cell-based; settings: PA 1380
Burkholderia cepacia = assay: Single-point BisEDT-antibiotic combination FICI; format: cell-based; settings: Bcep 1756
Bukholderia multivorans = assay: Single-point BisEDT-antibiotic combination FICI; format: cell-based; settings: Bmult 5665
Acinetobacter baumanii = assay: Single-point BisEDT-antibiotic combination FICI; format: cell-based; settings: Abau 2594
P. aeruginosa = assay: Checkerboard broth microdilution MIC and FICI; format: cell-based, Pseudomonas aeruginosa; settings: compound alone; for MIC: Pseudomonas aeruginosa, read-out: MIC (μg/mL) Alone
Experimental: The effects of combinations of microparticulate Bis-EDT and four Bis-EDT analogs prepared as described above, and other agents against representative strains of several Gram-negative pathogenic bacteria were tested. A modification of a common laboratory method was used to determine synergism (FICI≦0.5), enhancement (0.5<FICI≦1.0), antagonism (FICI>4.0) and indifference (1.0<FICI≦4.0) used fractional inhibitory concentrations (FICs) and FIC indices (FICI) (Eliopoulos G and R Moellering. 1991. Antimicrobial combinations. In Antibiotics in Laboratory Medicine, Third Edition, edited by V Lorian. Williams and Wilkins, Baltimore, Md., pp. 432-492; Odds, 2003 J. Antimicrob. Chemother. 52(1):1). The checkerboard technique was used to determine FIC indices and was employed in this study.
Stock solutions of all test articles were prepared at 40× the final target concentration in the appropriate solvent. […] The final drug concentrations in the FIC assay plates were set to bracket the MIC value of each agent for each test organism, unless the strain was totally resistant to the test agent. […] The test organisms were originally received from clinical sources, or from the American Type Culture Collection. Upon receipt, the isolates were streaked onto Tryptic Soy Agar II (TSA). Colonies were harvested from these plates and a cell suspension was prepared in an appropriate broth growth medium containing cryoprotectant. Aliquots were then frozen at −80° C. The frozen seeds of the organisms to be tested in a given assay were thawed, streaked for isolation onto TSA plates, and incubated at 35° C. All organisms were tested in Mueller Hinton II Broth (Becton Dickinson, Lot No. 9044411). The broth was prepared at 1.05× normal weight/volume to offset the 5% volume of the drugs in the final test plates.
Minimal Inhibitory Concentration (MIC) values were previously determined using the broth microdilution method for aerobic bacteria (Clinical and Laboratory Standards Institute (CLSI). Methods for Dilution Antimicrobial Susceptibility Tests for Bacteria That Grow Aerobically; Approved Standard—Eighth Edition. CLSI document M07-A8 [ISBN 1-56238-689-1]. Clinical and Laboratory Standards Institute, 940 West Valley Road, Suite 1400, Wayne, Pa. 19087-1898 USA, 2009.).
FIC values were determined using a broth microdilution method previously described (Sweeney et al., 2003 Antimicrob. Agents Chemother. 47(6):1902-1906). To prepare the test plates, automated liquid handlers (Multidrop 384, Labsystems, Helsinki, Finland; Biomek 2000 and Multimek 96, Beckman Coulter, Fullerton Calif.) were used to conduct serial dilutions and liquid transfers.
The appropriate wells of standard 96-well microdilution plates (Falcon 3918) were filled with 150 μL of the appropriate solvent in columns 2-12 using the Multidrop 384. Three hundred microliters of each secondary test drug was added to each well in Column 1 of the plates. These plates were used to prepare the drug “mother plates” which provided the serial drug dilutions for the drug combination plates. The Biomek 2000 was used to transfer 150 μL of each secondary drug solution (40×) from the wells in Column 1 of the mother plate and to make eleven 2-fold serial dilutions. Mother plates of Bis-EDT (and analogs) were serial diluted top to bottom by hand, using a multichannel pipette. Two mother plates, one for each secondary drug and one for Bis-EDT (or analogs), were combined to form a “checkerboard” pattern by transfer of equal volumes (using a multi-channel pipette) to the drug combination plate. Row H and Column 12 each contained serial dilutions of one of the agents alone for determination of the MIC.
The “daughter plates” were loaded with 180 μL of test medium using the Multidrop 384. Then, the Multimek 96 was used to transfer 10 μL of drug solution from each well of the drug combination mother plate to each corresponding well of the daughter plate in a single step.

MRSA clinical isolates [4] = settings: cited from earlier work

## CO/N=C(\C(=O)N[C@@H]1C(=O)N2C(C(=O)[O-])=C(C[N+]3(C)CCCC3)CS[C@H]12)c1csc(N)n1 [Cefepime]
MRSA clinical isolates [1]; BisEDT at 0.1 μg/ml, 12 cefepime-resistant MRSA
  Isolates in which BisEDT significantly enhanced inhibitory activity of cefepime: 11 of 12
MRSA clinical isolates [1]; BisEDT 0 μg/mL
  MIC: 45 ± 32 µg/mL
MRSA clinical isolates [1]; BisEDT 0.025 μg/mL
  MIC: 32 ± 28 µg/mL
MRSA clinical isolates [1]; BisEDT 0.05 μg/mL
  MIC: 37 ± 24 µg/mL
MRSA clinical isolates [1]; BisEDT 0.1 μg/mL
  MIC: 9.3 ± 6.1 µg/mL
MRSA clinical isolates [1]; cefepime-resistant MRSA isolates
  FIC, BisEDT and cefepime: < 0.5
[2]; BisEDT 0 μg/mL
  BPC: 24 ± 37 µg/mL
[2]; BisEDT 0.025 μg/mL
  BPC: 27 ± 28 µg/mL
[2]; BisEDT 0.05 μg/mL
  BPC: 18 ± 16 µg/mL
[2]; BisEDT 0.1 μg/mL
  BPC: 5.0 ± 7.3 µg/mL
[3]
  Antibiotic action on MRSA lawn with subMIC BisEDT: enhanced antibiotic action
Escherichia coli; EC 102
  FICI, single-point BisEDT-antibiotic combination: 0.87
Escherichia coli; EC 2232
  FICI, single-point BisEDT-antibiotic combination: 0.96
Klebsiella pneumoniae
  FICI, single-point BisEDT-antibiotic combination: 1.11
Pseudomonas aeruginosa
  FICI, single-point BisEDT-antibiotic combination: 0.62
Burkholderia cepacia
  FICI, single-point BisEDT-antibiotic combination: 1.34
Bukholderia multivorans
  FICI, single-point BisEDT-antibiotic combination: 0.96
Acinetobacter baumanii
  FICI, single-point BisEDT-antibiotic combination: 0.71
P. aeruginosa; P. aeruginosa 103
  MIC (μg/mL) Alone: 1 µg/mL
  MIC: 2 µg/mL
P. aeruginosa; P. aeruginosa 1479
  MIC (μg/mL) Alone: 8 µg/mL
  MIC: 4 µg/mL
P. aeruginosa; P. aeruginosa 2566
  MIC (μg/mL) Alone: 16 µg/mL
  MIC: 8 µg/mL
P. aeruginosa; P. aeruginosa 1381
  MIC: 32 µg/mL
P. aeruginosa; P. aeruginosa 1384
  MIC: 2 µg/mL
P. aeruginosa; P. aeruginosa 1474
  MIC: 2 µg/mL
P. aeruginosa; P. aeruginosa 2568
  MIC: 2 µg/mL
MRSA clinical isolates [4]; Standard MIC breakpoint for resistance
  MIC Standards, R (resistance): ≧32 μg/ml
MRSA clinical isolates [4]; Standard MIC breakpoint for sensitivity
  MIC Standards, S (antibiotic sensitivity): ≦8 μg/ml
